From ChEMBL document CHEMBL1138138, “Piperazinyl oxime ethers as NK-1 receptor antagonists” (Bioorg Med Chem Lett, 2006)

What was measured:
[1] = biological target: T1, Substance-P receptor (Homo sapiens, UniProt P25103); assay: Effect on IP3 turnover by phospholipaseC positively linked to human NK1 receptor expressed in CHO cells; type: functional, cell-based; settings: read-out: pA2 (converted)
[2] = biological target: T1, Substance-P receptor; assay: Displacement of [3H] labelled Substance P from cloned human NK1 receptor expressed in CHO cells; type: cell-based
[3] = system: Gerbil, jird; assay: Inhibition of GR-73632 induced foot tapping in po dosed gerbils; type: functional; settings: Meriones

T1 sequence (P25103 whole entry): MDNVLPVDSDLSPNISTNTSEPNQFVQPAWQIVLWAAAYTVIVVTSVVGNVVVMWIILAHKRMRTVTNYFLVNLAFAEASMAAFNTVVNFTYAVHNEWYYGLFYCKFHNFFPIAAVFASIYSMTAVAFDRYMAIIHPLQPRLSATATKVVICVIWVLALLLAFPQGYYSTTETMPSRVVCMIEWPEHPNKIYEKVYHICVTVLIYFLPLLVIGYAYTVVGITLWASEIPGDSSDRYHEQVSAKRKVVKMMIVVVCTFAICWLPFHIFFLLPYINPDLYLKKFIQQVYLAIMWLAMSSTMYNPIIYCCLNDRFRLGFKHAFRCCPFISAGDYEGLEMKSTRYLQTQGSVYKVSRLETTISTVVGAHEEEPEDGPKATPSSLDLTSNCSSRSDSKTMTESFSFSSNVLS

Structure (SMILES)	Kb [1] [nM]	Ki [2] [nM]	ED50 [3] [mg/kg]
O=C(c1cc(C(F)(F)F)cc(C(F)(F)F)c1)N1CCN(CC2=NOC(CN3CCOCC3)C2)C[C@H]1Cc1c[nH]c2ccccc12 (stereo not given in full)	0.631	2.51	6.4
O=C(c1cc(C(F)(F)F)cc(C(F)(F)F)c1)N1CCN(C/C(=N\OCCCN2CCOCC2)c2ccccc2)C[C@H]1Cc1c[nH]c2ccccc12	1.26	6.31	> 10
CO/N=C(/C)CN1CCN(C(=O)c2cc(C(F)(F)F)cc(C(F)(F)F)c2)[C@H](Cc2c[nH]c3ccccc23)C1	7.94	3.98	
O=C(c1cc(C(F)(F)F)cc(C(F)(F)F)c1)N1CCN(C/C=N\OCCCN2CCOCC2)C[C@H]1Cc1c[nH]c2ccccc12	0.631	1.26	2.3
C/C(CN1CCN(C(=O)c2cc(C(F)(F)F)cc(C(F)(F)F)c2)[C@H](Cc2c[nH]c3ccccc23)C1)=N/OCc1ccccn1	1.26	10	4.1
C/C(CN1CCN(C(=O)c2cc(C(F)(F)F)cc(C(F)(F)F)c2)[C@H](Cc2c[nH]c3ccccc23)C1)=N/OCCN(C)C	7.94	0.794	> 10
C/C(CN1CCN(C(=O)c2cc(C(F)(F)F)cc(C(F)(F)F)c2)[C@H](Cc2c[nH]c3ccccc23)C1)=N/OCCCN1CCOCC1	0.158	12.6	7.4
C/C(CN1CCN(C(=O)c2cc(C(F)(F)F)cc(C(F)(F)F)c2)[C@H](Cc2c[nH]c3ccccc23)C1)=N/OCCN1CCS(=O)(=O)CC1	0.1	2.51	> 10
C/C(CN1CCN(C(=O)c2cc(C(F)(F)F)cc(C(F)(F)F)c2)[C@H](Cc2c[nH]c3ccccc23)C1)=N/OCCN1CCSCC1	1.26	6.31	10
O=C(c1cc(C(F)(F)F)cc(C(F)(F)F)c1)N1CCN(C/C=N\OCCN2CCOCC2)C[C@H]1Cc1c[nH]c2ccccc12	0.631	1.26	2

The next lines start with results.

Kb [1] [nM]	Ki [2] [nM]	Structure (SMILES)	ED50 [3] [mg/kg]
1.26		COc1ccccc1CNCCNC(=O)N1CCN(C(=O)c2cc(C(F)(F)F)cc(C(F)(F)F)c2)[C@H](Cc2c[nH]c3ccccc23)C1	> 10
1.58	1.58	C/C(CN1CCN(C(=O)c2cc(C(F)(F)F)cc(C(F)(F)F)c2)[C@H](Cc2c[nH]c3ccccc23)C1)=N/OCCN1CCN(C)CC1	> 10
0.158	0.794	C/C(CN1CCN(C(=O)c2cc(C(F)(F)F)cc(C(F)(F)F)c2)[C@H](Cc2c[nH]c3ccccc23)C1)=N/OCCN	> 10
0.316	2	CNCCO/N=C(/C)CN1CCN(C(=O)c2cc(C(F)(F)F)cc(C(F)(F)F)c2)[C@H](Cc2c[nH]c3ccccc23)C1	> 10
1.26	10	O=C(c1cc(C(F)(F)F)cc(C(F)(F)F)c1)N1CCN(CC/C(=N\OCCN2CCOCC2)c2ccccc2)C[C@H]1Cc1c[nH]c2ccccc12	> 10
1.26	0.398	C/C(CCN1CCN(C(=O)c2cc(C(F)(F)F)cc(C(F)(F)F)c2)[C@H](Cc2c[nH]c3ccccc23)C1)=N/OCCN1CCOCC1	2
1	0.2	C/C(CCN1CCN(C(=O)c2cc(C(F)(F)F)cc(C(F)(F)F)c2)[C@H](Cc2c[nH]c3ccccc23)C1)=N/OCCCN1CCOCC1	5.5
0.158	10	C/C(CN1CCN(C(=O)c2cc(C(F)(F)F)cc(C(F)(F)F)c2)[C@H](Cc2c[nH]c3ccccc23)C1)=N/OCCN1CCOCC1	1.3
3.16	20	O=C(c1cc(C(F)(F)F)cc(C(F)(F)F)c1)N1CCN(C/C(=N\OCCN2CCOCC2)c2ccccc2)C[C@H]1Cc1c[nH]c2ccccc12	
5.01	6.31	C/C(CN1CCN(C(=O)c2cc(C(F)(F)F)cc(C(F)(F)F)c2)[C@H](Cc2c[nH]c3ccccc23)C1)=N/OCC(C)(C)N1CCOCC1	
1.58	1.26	C/C(CCCN1CCN(C(=O)c2cc(C(F)(F)F)cc(C(F)(F)F)c2)[C@H](Cc2c[nH]c3ccccc23)C1)=N/OCCN1CCOCC1	2
2	3.16	C/C(CN1CCN(C(=O)c2cc(C(F)(F)F)cc(C(F)(F)F)c2)[C@H](Cc2c[nH]c3ccccc23)C1)=N/OCC(C)N1CCOCC1 (stereo not given in full)	2.6
0.794	12.6	O=C(c1cc(C(F)(F)F)cc(C(F)(F)F)c1)N1CCN(Cc2cc(CN3CCOCC3)on2)C[C@H]1Cc1c[nH]c2ccccc12	4.6
